Organism: Rattus norvegicus
Assay: Open TG-GATES - Regimen: Single
Type: toxicity, organism-based, Sprague-Dawley
Design: regimen Single, gender Male, age 6 weeks
Conditions: in vivo, iv, 60 mg/kg, route intravenous injection, dose level High; for APTT / Bas / Eos / Fbg / Hb / Ht / Lym / MCH / MCHC / MCV / Mono / Neu / PT / Plat / RBC / Ret / WBC: tissue Blood; for KIDNEY_L / KIDNEY_R / KIDNEY_TOTAL: tissue Kidney; for LIVER: tissue Liver; for A/G / ALP / ALT / AST / BUN / CRE / Ca / Cl / DBIL / GLC / IP / K / LDH / Na / PL / RALB / TBIL / TC / TG / TP / gamma-GTP: tissue Plasma

NCCBr [BROMOETHANAMINE]
TERMINAL_BW (3 h): 212.4 g | APTT (3 h): 23.5 s | Bas (3 h): 0% | Eos (3 h): 0.6% | Fbg (3 h): 312.8 mg/dL | Hb (3 h): 14.4 g/dL | Ht (3 h): 41.9% | Lym (3 h): 70.8% | MCH (3 h): 21.8 pg | MCHC (3 h): 34.5% | MCV (3 h): 63.3 fL | Mono (3 h): 2.4% | Neu (3 h): 25.4% | PT (3 h): 16.1 s | Plat (3 h): 131.5 x10_4/uL | RBC (3 h): 661.2 x10_4/ul | Ret (3 h): 6% | WBC (3 h): 39.6 x10_2/uL | KIDNEY_L (3 h): 0.9 g | KIDNEY_R (3 h): 1 g | KIDNEY_TOTAL (3 h): 1.9 g | LIVER (3 h): 9.3 g | A/G (3 h): 1.2 | ALP (3 h): 1494.4 IU/L | ALT (3 h): 47 IU/L | AST (3 h): 56.8 IU/L | BUN (3 h): 13.4 mg/dL | CRE (3 h): 0.1 mg/dL | Ca (3 h): 10.7 mg/dL | Cl (3 h): 106.8 meq/L | DBIL (3 h): 0.002 mg/dL | GLC (3 h): 166.2 mg/dL | IP (3 h): 10.5 mg/dL | K (3 h): 4.1 meq/L | LDH (3 h): 321.8 IU/L | Na (3 h): 143.4 meq/L | PL (3 h): 141 mg/dL | RALB (3 h): 3.1 g/dL | TBIL (3 h): 0.014 mg/dL | TC (3 h): 85.4 mg/dL | TG (3 h): 46.4 mg/dL | TP (3 h): 5.9 g/dL | gamma-GTP (3 h): 1 IU/L | TERMINAL_BW (6 h): 208.7 g | APTT (6 h): 23.1 s | Bas (6 h): 0% | Eos (6 h): 0.6% | Fbg (6 h): 325.6 mg/dL | Hb (6 h): 14.2 g/dL | Ht (6 h): 40.9% | Lym (6 h): 74.2% | MCH (6 h): 20.9 pg | MCHC (6 h): 34.8% | MCV (6 h): 60.1 fL | Mono (6 h): 1.6% | Neu (6 h): 23.2% | PT (6 h): 16.1 s | Plat (6 h): 136 x10_4/uL | RBC (6 h): 681 x10_4/ul | Ret (6 h): 5.4% | WBC (6 h): 35.9 x10_2/uL | KIDNEY_L (6 h): 1 g | KIDNEY_R (6 h): 1 g | KIDNEY_TOTAL (6 h): 2 g | LIVER (6 h): 9.1 g | A/G (6 h): 1.2 | ALP (6 h): 1401.4 IU/L | ALT (6 h): 39.2 IU/L | AST (6 h): 54.2 IU/L | BUN (6 h): 15.6 mg/dL | CRE (6 h): 0.1 mg/dL | Ca (6 h): 10.6 mg/dL | Cl (6 h): 101.4 meq/L | DBIL (6 h): 0.004 mg/dL | GLC (6 h): 201 mg/dL | IP (6 h): 10.2 mg/dL | K (6 h): 4 meq/L | LDH (6 h): 362.4 IU/L | Na (6 h): 142 meq/L | PL (6 h): 133 mg/dL | RALB (6 h): 3.2 g/dL | TBIL (6 h): 0.01 mg/dL | TC (6 h): 80.8 mg/dL | TG (6 h): 27.6 mg/dL | TP (6 h): 6 g/dL | gamma-GTP (6 h): 1.2 IU/L | TERMINAL_BW (9 h): 202.6 g | APTT (9 h): 24.1 s | Bas (9 h): 0% | Eos (9 h): 0.2% | Fbg (9 h): 341.6 mg/dL | Hb (9 h): 14.9 g/dL | Ht (9 h): 42.6% | Lym (9 h): 71% | MCH (9 h): 21.5 pg | MCHC (9 h): 35% | MCV (9 h): 61.4 fL | Mono (9 h): 3.2% | Neu (9 h): 24.2% | PT (9 h): 15.8 s | Plat (9 h): 135.3 x10_4/uL | RBC (9 h): 695 x10_4/ul | Ret (9 h): 5.2% | WBC (9 h): 40.1 x10_2/uL | KIDNEY_L (9 h): 1 g | KIDNEY_R (9 h): 1 g | KIDNEY_TOTAL (9 h): 2 g | LIVER (9 h): 8.8 g | A/G (9 h): 1.2 | ALP (9 h): 1484.2 IU/L | ALT (9 h): 34.4 IU/L | AST (9 h): 49.6 IU/L | BUN (9 h): 19.8 mg/dL | CRE (9 h): 0.2 mg/dL | Ca (9 h): 10.7 mg/dL | Cl (9 h): 101.4 meq/L | DBIL (9 h): 0 mg/dL | GLC (9 h): 223.8 mg/dL | IP (9 h): 9.1 mg/dL | K (9 h): 3.6 meq/L | LDH (9 h): 316.2 IU/L | Na (9 h): 142 meq/L | PL (9 h): 154.6 mg/dL | RALB (9 h): 3.4 g/dL | TBIL (9 h): 0.016 mg/dL | TC (9 h): 86.8 mg/dL | TG (9 h): 84.2 mg/dL | TP (9 h): 6.2 g/dL | gamma-GTP (9 h): 1.4 IU/L | TERMINAL_BW (24 h): 206.5 g | APTT (24 h): 24.1 s | Bas (24 h): 0% | Eos (24 h): 0.6% | Fbg (24 h): 354.4 mg/dL | Hb (24 h): 14.6 g/dL | Ht (24 h): 42.3% | Lym (24 h): 81.6% | MCH (24 h): 21 pg | MCHC (24 h): 34.6% | MCV (24 h): 60.9 fL | Mono (24 h): 2.6% | Neu (24 h): 13.8% | PT (24 h): 16.1 s | Plat (24 h): 130.9 x10_4/uL | RBC (24 h): 695 x10_4/ul | Ret (24 h): 4% | WBC (24 h): 90.8 x10_2/uL | KIDNEY_L (24 h): 1 g | KIDNEY_R (24 h): 1 g | KIDNEY_TOTAL (24 h): 1.9 g | LIVER (24 h): 8.1 g | A/G (24 h): 1.2 | ALP (24 h): 1421.6 IU/L | ALT (24 h): 35.4 IU/L | AST (24 h): 61.4 IU/L | BUN (24 h): 18.4 mg/dL | CRE (24 h): 0.2 mg/dL | Ca (24 h): 10.7 mg/dL | Cl (24 h): 109.4 meq/L | DBIL (24 h): 0.004 mg/dL | GLC (24 h): 174 mg/dL | IP (24 h): 7.9 mg/dL | K (24 h): 4.2 meq/L | LDH (24 h): 278.8 IU/L | Na (24 h): 142.8 meq/L | PL (24 h): 141.4 mg/dL | RALB (24 h): 3.1 g/dL | TBIL (24 h): 0.028 mg/dL | TC (24 h): 91.4 mg/dL | TG (24 h): 36.4 mg/dL | TP (24 h): 5.8 g/dL | gamma-GTP (24 h): 1.6 IU/L

Source: ChEMBL document CHEMBL3885861, “Open TG-GATES”
